The subject of the assay is AA-induced platelet aggregation. In words: Inhibitory effect on AA-induced platelet aggregation in rats in vitro (washed platelets). The format is cell-based, rat. The note with it: 1*10^−4 M. How it is done: Several experimental groups were established, including a blank control group, an AA (arachidonic acid) model control group, and various test compounds. Each test compound had three concentration groups: 10^−3 M, 10^−4 M, and 10^−5 M. The data from the blank and model control group were shared among the different drug concentration groups as a control.
Male SD rats were anesthetized with 3% chloral hydrate (300 mg/kg) through intraperitoneal injection. After being fixed in a supine position, the skin of the neck was cut about 3 cm, bluntly separated with a hemostat, and the trachea was exposed after the common carotid artery was separated. The distal end of the common carotid artery was ligated with a fine thread, and the proximal end was clamped with an arterial clamp for vascular intubation. After the intubation was fixed, the artery clamp was opened, and the blood was placed into a blood collection tube containing 3.8% trisodium citrate so that the blood was mixed well with the 3.8% trisodium citrate in a volume ratio of 9:1.
The prepared anticoagulant blood was mixed well and centrifuged for 10 minutes at 500 rpm, then the upper layer of plasma was aspirated to obtain platelet-rich plasma (PRP), and the PRP was centrifuged again for 5 minutes at 3,000 rpm. The supernatant was discarded, and the platelet precipitate was obtained, which was washed once with Ca^2+-free HEPES-Tyrode's buffer, then centrifuged at 3,000 rpm for 5 minutes. The supernatant was discarded, and the platelets were resuspended with Ca^2+-free HEPES-Tyrode's buffer to obtain the washed platelets.
First, 300 μL of Ca^2+-containing HEPES-Tyrode's solution was taken into the test cup, put into the test wells, and calibrated by pressing the “PPP” key. Subsequently, 240 μL of the washed platelets were added to the test cup, then added with 30 μL of different concentrations of drug solution, incubated for 10 minutes at 37° C. in a preheated bath, and then put into the test wells. 3 μL of 100× CaCl2 solution (final concentration of 0.2 g/L) and 30 μL of inducer (final concentration of AA of 800 μM) were added to the test wells, and then the “Start” key was pressed immediately. The maximum aggregation rate was recorded every 60 s. The measurement was repeated three times for each concentration for 10 minutes, and the aggregation curve was plotted.
The platelet aggregation inhibition rate was calculated with the following formula:
Inhibition rate (%)=(maximum aggregation rate in the model control group−maximum aggregation rate in the administration group)/maximum aggregation rate in the model control group×100%
All data were expressed as mean±standard deviation (mean±SD). SPSS 22.0 software was used for statistical analysis of the data. Intergroup data were analyzed using one-way ANOVA, with P<0.05 considered as statistically significant and P<0.01 considered as highly significant.
As for `O=C(O)[C@H]1C[C@@H]1c1ccc(Cn2ccnc2)c(F)c1` [Compound 35, (1S,2S)-2-(4-((1H-Imidazol-1-yl)methyl)-3-fluorophenyl)cyclopropane-1-carboxylic acid], the “significant inhibition of AA-induced platelet aggregation” value (“significant inhibition” for short) is “can significantly inhibit”.
In the case of `Cc1cc(Cn2cnc(F)c2)ccc1[C@H]1C[C@@H]1C(=O)O` [Compound 25, (1S,2S)-2-(4-((4-Fluoro-1H-imidazol-1-yl)methyl)-2-methylphenyl)cyclopropane-1-carboxylic acid] it was “can significantly inhibit”; in that of `Cc1cc(Cn2ccnc2)ccc1[C@@H]1C[C@H]1C(=O)O` [Compound 7, (1R,2R)-2-(4-((1H-Imidazol-1-yl)methyl)-2-methylphenyl)cyclopropane-1-carboxylic acid], “can significantly inhibit”; in that of `Cc1cc(Cn2cnc(F)c2)ccc1[C@@H]1C[C@H]1C(=O)O` [Compound 5, (1R,2R)-2-(4-((4-Fluoro-1H-imidazol-1-yl)methyl)-2-methylphenyl)cyclopropane-1-carboxylic acid], “can significantly inhibit”.
On to `O=C(O)[C@@H]1C[C@H]1c1ccc(Cn2cnc(Cl)c2)c(F)c1` [Compound 14, (1R,2R)-2-(4-((4-Chloro-1H-imidazol-1-yl)methyl)-3-fluorophenyl)cyclopropane-1-carboxylic acid], for which the “significant inhibition” value is listed as “can significantly inhibit”.
In the case of `Cc1cc(Cn2ccnc2)ccc1[C@H]1C[C@@H]1C(=O)O` [Compound 27, (1S,2S)-2-(4-((1H-Imidazol-1-yl)methyl)-2-methylphenyl)cyclopropane-1-carboxylic acid], the “significant inhibition” value is “can significantly inhibit”.
For `Cc1cc([C@@H]2C[C@H]2C(=O)O)ccc1Cn1cnc(Cl)c1` [Compound 4, (1R,2R)-2-(4-((4-Chloro-1H-imidazol-1-yl)methyl)-3-methylphenyl)cyclopropane-1-carboxylic acid] the value was “can significantly inhibit”.
For `O=C(O)[C@H]1C[C@@H]1c1ccc(Cn2cnc(Cl)c2)cc1F` [Compound 33, (1S,2S)-2-(4-((4-Chloro-1H-imidazol-1-yl)methyl)-2-fluorophenyl)cyclopropane-1-carboxylic acid] the value was “can significantly inhibit”; for `O=C(O)[C@H]1C[C@@H]1c1ccc(Cn2cnc(Cl)c2)c(F)c1` [Compound 34, (1S,2S)-2-(4-((4-Chloro-1H-imidazol-1-yl)methyl)-3-fluorophenyl)cyclopropane-1-carboxylic acid], “can significantly inhibit”.
For `O=C(O)[C@H]1C[C@@H]1c1ccc(Cn2cnc(Cl)c2)c(Cl)c1` [Compound 31, (1S,2S)-2-(3-Chloro-4-((4-chloro-1H-imidazol-1-yl)methyl)phenyl)cyclopropane-1-carboxylic acid] the value was “can significantly inhibit”.
`Cc1cc([C@@H]2C[C@H]2C(=O)O)ccc1Cn1cnc(F)c1` [Compound 8, (1R,2R)-2-(4-((4-Fluoro-1H-imidazol-1-yl)methyl)-3-methylphenyl)cyclopropane-1-carboxylic acid]: the “significant inhibition” value is reported as “can significantly inhibit”.
For `Cc1cc([C@H]2C[C@@H]2C(=O)O)ccc1Cn1cnc(F)c1` [Compound 28, (1S,2S)-2-(4-((4-Fluoro-1H-imidazol-1-yl)methyl)-3-methylphenyl)cyclopropane-1-carboxylic acid] the value was “can significantly inhibit”.
For `O=C(O)[C@H]1C[C@@H]1c1ccc(Cn2cnc(F)c2)c(Cl)c1` [Compound 38, (1S,2S)-2-(3-Chloro-4-((4-fluoro-1H-imidazol-1-yl)methyl)phenyl)cyclopropane-1-carboxylic acid], the “significant inhibition” value is reported as “can significantly inhibit”.
As to `O=C(O)[C@H]1C[C@@H]1c1ccc(Cn2ccnc2)cc1` [Compound 20, (1S,2S)-2-(4-((1H-Imidazol-1-yl)methyl)phenyl)cyclopropane-1-carboxylic acid], the “significant inhibition” value was “can significantly inhibit”.
For `O=C(O)[C@H]1C[C@@H]1c1ccc(Cn2cnc(F)c2)cc1F` [Compound 37, (1S,2S)-2-(2-Fluoro-4-((4-fluoro-1H-imidazol-1-yl)methyl)phenyl)cyclopropane-1-carboxylic acid], the “significant inhibition” value was “can significantly inhibit”.
Turning to `Cc1cc([C@H]2C[C@@H]2C(=O)O)ccc1Cn1cnc(Cl)c1` [Compound 24, (1S,2S)-2-(4-((4-Chloro-1H-imidazol-1-yl)methyl)-3-methylphenyl)cyclopropane-1-carboxylic acid], the “significant inhibition” value is listed as “can significantly inhibit”.

These data come from patent US20240336638A1, “IMIDAZOLE COMPOUND, AND INTERMEDIATE AND APPLICATION THEREOF” (priority 2021, published 2024).
